According to US20230149419A1, “COMPOSITION FOR PREVENTING OR TREATING NEUROINFLAMMATORY DISEASES, COMPRISING CHLORPROMAZINE” (GliaCellTech Inc., priority 2020, published 2023):

How the values were obtained:
[1] = tested on: primary microglia from wild-type mice; assay: Effect of REV-ERBα agonist on LPS-induced IL-6 mRNA (qRT-PCR), wild-type microglia; type: cell-based, mouse; settings: for IL-6 mRNA expression level: WT microglia
Method: (§1) The efficacy of SR9009 was evaluated by analyzing IL-6 at protein and mRNA expression levels according to post-LPS treatment time (2, 6, 12, and 24 hours) in the same ELISA and qRT-PCR as in Example 5.

[2] = tested on: primary microglia from Psen2 mutation mouse model of Alzheimer's disease; assay: Effect of REV-ERBα agonist on LPS-induced IL-6 secretion (ELISA), Psen2 mutation microglia; type: cell-based; settings: for IL-6 secreted: KI/+ microglia
Method: as §1

[3] = tested on: primary microglia from Psen2 mutation mouse model of Alzheimer's disease; assay: Effect of REV-ERBα agonist on LPS-induced IL-6 mRNA (qRT-PCR), Psen2 mutation microglia; type: cell-based; settings: for IL-6 mRNA expression level: KI/+ microglia
Method: as §1

[4] = tested on: primary microglia from wild-type mice; assay: Effect of REV-ERBα agonist on LPS-induced IL-6 secretion (ELISA), wild-type microglia; type: cell-based, mouse; settings: for IL-6 secreted: WT microglia
Method: as §1

[5] = wild-type microglia, group 32 vs 31, 2, 6, 12 and 24 hours
[6] = 10 NM SR9009, LPS 1 μg/mL 2 h (Group 34)
[7] = 10 NM SR9009, LPS 1 μg/mL 6 h (Group 34)
[8] = 10 NM SR9009, LPS 1 μg/mL 12 h (Group 34)
[9] = 10 NM SR9009, LPS 1 μg/mL 24 h (Group 34)

SMILES: CCOC(=O)N1CCC(CN(Cc2ccc(Cl)cc2)Cc2ccc([N+](=O)[O-])s2)C1 (centres unmarked) [SR9009]
- IL-6 mRNA expression level ([1]; SR9009, LPS 1 μg/mL 2 h (Group 32)): 0.456 fold
- IL-6 mRNA expression level ([1]; SR9009, LPS 1 μg/mL 6 h (Group 32)): 1.098 fold
- IL-6 mRNA expression level ([1]; SR9009, LPS 1 μg/mL 12 h (Group 32)): 1.129 fold
- IL-6 mRNA expression level ([1]; SR9009, LPS 1 μg/mL 24 h (Group 32)): 2.150 fold
- mRNA expression of IL-6 (in words) [1, 5]: repressed the mRNA expression of IL-6
- IL-6 secreted [2, 6]: 38.229 pg/mL
- IL-6 secreted [2, 7]: 332.114 pg/mL
- IL-6 secreted [2, 8]: 1146.560 pg/mL
- IL-6 secreted [2, 9]: 1657.510 pg/mL
- production of IL-6 (in words) ([2]; Psen2 mutation microglia, SR9009-treated group vs group 33): cannot repress
- IL-6 mRNA expression level [3, 6]: 1.134 fold
- IL-6 mRNA expression level [3, 7]: 7.810 fold
- IL-6 mRNA expression level [3, 8]: 8.512 fold
- IL-6 mRNA expression level [3, 9]: 11.141 fold
- mRNA expression of IL-6 (in words) ([3]; Psen2 mutant microglia, group 34 vs 33): cannot repress
- IL-6 secreted ([4]; 10 NM SR9009, LPS 1 μg/mL 2 h (Group 32)): 24.467 pg/mL
- IL-6 secreted ([4]; 10 NM SR9009, LPS 1 μg/mL 6 h (Group 32)): 85.630 pg/mL
- IL-6 secreted ([4]; 10 NM SR9009, LPS 1 μg/mL 12 h (Group 32)): 361.583 pg/mL
- IL-6 secreted ([4]; 10 NM SR9009, LPS 1 μg/mL 24 h (Group 32)): 555.053 pg/mL
- production of IL-6 (in words) [4, 5]: repressed the production of IL-6
